Assay results taken from doi:10.1101/2020.07.20.212142v1 (bioRxiv, 2020).

How the values were obtained:
[1] = tested on: NIH 3T3 cells; assay: NIH 3T3 peptide permeation by live-cell confocal microscopy; format: cell-based, mouse; details: live NIH 3T3 cells; 5 µM TAMRA-labeled peptide, Opti-mem + 2% FBS, 3 hours, 37°C
[2] = tested on: dechorionated Drosophila melanogaster hosts; format: in vivo; details: dechorionated-only hosts; 20 µM peptide overnight, room temperature

| permeation by confocal fluorescence microscopy [1] | Substance | partial loss of viability observed (in words) [2] |
| --- | --- | --- |
| spare punctuate fluorescence | TAMRA-MRKRHASRREK |  |
| substantially greater permeation | cyclo[Glut-MRKRHASRRE-K*]-K(5-TAMRA) (sidechain bridge or staple) |  |
| no permeation was detected | TAMRA-GEGEGEG |  |
| spare punctuate fluorescence | TAMRA-RRRRRRRRR | sole exception |
